In patent US20260191825A1, “CONTRACEPTIVE COMPOUNDS AND DOSING FOR THE SAME” (YourChoice Therapeutics, Inc., priority 2024, published 2026):
pIC50: −log10 of the molar value. “Also recorded” adds a separate entry of the source.

Assays:
[1] = tested on: rats; assay: Mating trials with rats; format: in vivo, rat; settings: control 88%
[2] = tested on: sperm counts; assay: Phase 1b MAD study (Part 1), 28-day dosing, sperm counts; format: in vivo, human; settings: men dosed for 4 weeks (28 oral doses) at doses of up to 90 mg
Description: The main underlying reason provided by experts in the male contraceptive field is the dosing duration. Dosing for 28 days in men only covers approximately one third of the entire cycle from sperm production to sperm release, which takes 85 days in men (71 days for one spermatogenic cycle and 14 days for epididymal transit). […] Therefore, the dosing period will be extended from 28 days to 90 days with the anticipation that this will show the intended effect (reduction in sperm concentration).
(§1) Cohort 4 (receiving 180 mg) is currently being studied.

[3] = target: CYP1A2 (Homo sapiens, UniProt P05177); assay: In vitro CYP inhibition (direct and time-dependent), CYP1A2; format: in vitro ADME
CYP1A2, sequence (P05177 whole entry): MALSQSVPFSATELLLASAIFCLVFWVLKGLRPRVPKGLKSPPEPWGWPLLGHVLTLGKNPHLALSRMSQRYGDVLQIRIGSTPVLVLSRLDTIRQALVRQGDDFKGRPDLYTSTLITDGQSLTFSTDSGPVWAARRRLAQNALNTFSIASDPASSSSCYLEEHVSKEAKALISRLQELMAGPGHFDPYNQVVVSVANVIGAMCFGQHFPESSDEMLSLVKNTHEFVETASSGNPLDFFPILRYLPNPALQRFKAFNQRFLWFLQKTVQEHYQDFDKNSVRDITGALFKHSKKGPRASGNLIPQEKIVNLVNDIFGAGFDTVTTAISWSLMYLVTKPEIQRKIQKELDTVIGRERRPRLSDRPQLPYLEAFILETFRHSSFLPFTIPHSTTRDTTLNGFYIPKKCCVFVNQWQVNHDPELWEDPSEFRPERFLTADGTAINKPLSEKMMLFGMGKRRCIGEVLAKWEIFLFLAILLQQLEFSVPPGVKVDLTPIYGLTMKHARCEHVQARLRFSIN
Description: (§2) However, the likelihood of drug interactions is low since healthy participants who meet eligibility criteria will be enrolled in this Phase 1b/2a clinical trial. An allowance for select concomitant medications may be considered for select participants at the discretion of the investigator and/or sponsor if drug profiles are not anticipated to interact with Compound A. Such medications may include, but will not be limited to paracetamol or ibuprofen as assessed by both the PI and the Sponsor. […] Additional precautions to avoid grapefruit, pomegranates, star fruit, or Seville oranges for 7 days prior to admission, and juices and products containing these fruits for the duration of the study will be taken.

[4] = In vitro stability in microsomes (rat); format: in vitro ADME; settings: rats
Protocol: (§3) Respective half-lives (T1/2) were 9.5 hours (human), 23.1 hours (monkeys), >23.1 hours (mice), >23.1 hours (rats), 19.6 hours (rabbits), and >23.1 hours (dogs).

[5] = Metabolite identification in pooled hepatocytes (all species); format: in vitro ADME, human, monkey, mouse, rat, rabbit, dog
Description: Overall, each metabolite was present at less than 10% of the recoverable metabolic profile across all species. The rat produced 6 of the 8 quantified human metabolites and the dog produced 4 of the 8 human metabolites. […] Because the presence of these metabolites was ≤10% of the recoverable metabolic profile, and because all other human metabolites were represented in either the rat or dog, these 2 species were considered relevant species to assess toxicity.

[6] = target: CYP2C8 (Homo sapiens, UniProt P10632); assay: In vitro CYP inhibition (direct and time-dependent), CYP2C8; format: in vitro ADME
CYP2C8, sequence (P10632 whole entry): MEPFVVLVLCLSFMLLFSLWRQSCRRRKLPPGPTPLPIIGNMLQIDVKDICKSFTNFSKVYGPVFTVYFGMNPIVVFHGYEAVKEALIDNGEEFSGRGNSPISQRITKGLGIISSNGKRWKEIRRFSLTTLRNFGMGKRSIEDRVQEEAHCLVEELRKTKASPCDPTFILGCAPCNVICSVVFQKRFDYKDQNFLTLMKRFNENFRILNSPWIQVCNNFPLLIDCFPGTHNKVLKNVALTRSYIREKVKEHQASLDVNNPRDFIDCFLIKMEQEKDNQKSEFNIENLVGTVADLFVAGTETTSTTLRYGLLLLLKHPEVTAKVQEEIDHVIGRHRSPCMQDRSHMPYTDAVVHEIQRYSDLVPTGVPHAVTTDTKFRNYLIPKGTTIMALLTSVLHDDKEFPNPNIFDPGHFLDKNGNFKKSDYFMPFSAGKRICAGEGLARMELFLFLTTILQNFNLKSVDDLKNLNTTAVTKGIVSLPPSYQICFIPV
Description: as §2

[7] = In vitro stability in microsomes (mouse); format: in vitro ADME; settings: mice, read-out: Half-life (T1/2) in microsomes
Protocol: as §3

[8] = tested on: plasma proteins; assay: In vitro plasma protein binding; format: in vitro ADME; settings: 1 μM, all species tested (human, monkey, mouse, rat, dog)
[9] = tested on: healthy vasectomized men; assay: Phase 1a single ascending oral dose study, safety and tolerability; format: in vivo, human
Protocol: The doses tested under fasting conditions were 10, 30, 90 and 180 mg. […] Cohort 1 first received 10 mg, and after a 5-week washout period received 30 mg. Cohort 2 received 90 mg followed by 180 mg after a 5-week washout period.

[10] = target: hERG (Homo sapiens, UniProt Q12809); assay: hERG GLP safety pharmacology study
hERG, sequence (Q12809 whole entry): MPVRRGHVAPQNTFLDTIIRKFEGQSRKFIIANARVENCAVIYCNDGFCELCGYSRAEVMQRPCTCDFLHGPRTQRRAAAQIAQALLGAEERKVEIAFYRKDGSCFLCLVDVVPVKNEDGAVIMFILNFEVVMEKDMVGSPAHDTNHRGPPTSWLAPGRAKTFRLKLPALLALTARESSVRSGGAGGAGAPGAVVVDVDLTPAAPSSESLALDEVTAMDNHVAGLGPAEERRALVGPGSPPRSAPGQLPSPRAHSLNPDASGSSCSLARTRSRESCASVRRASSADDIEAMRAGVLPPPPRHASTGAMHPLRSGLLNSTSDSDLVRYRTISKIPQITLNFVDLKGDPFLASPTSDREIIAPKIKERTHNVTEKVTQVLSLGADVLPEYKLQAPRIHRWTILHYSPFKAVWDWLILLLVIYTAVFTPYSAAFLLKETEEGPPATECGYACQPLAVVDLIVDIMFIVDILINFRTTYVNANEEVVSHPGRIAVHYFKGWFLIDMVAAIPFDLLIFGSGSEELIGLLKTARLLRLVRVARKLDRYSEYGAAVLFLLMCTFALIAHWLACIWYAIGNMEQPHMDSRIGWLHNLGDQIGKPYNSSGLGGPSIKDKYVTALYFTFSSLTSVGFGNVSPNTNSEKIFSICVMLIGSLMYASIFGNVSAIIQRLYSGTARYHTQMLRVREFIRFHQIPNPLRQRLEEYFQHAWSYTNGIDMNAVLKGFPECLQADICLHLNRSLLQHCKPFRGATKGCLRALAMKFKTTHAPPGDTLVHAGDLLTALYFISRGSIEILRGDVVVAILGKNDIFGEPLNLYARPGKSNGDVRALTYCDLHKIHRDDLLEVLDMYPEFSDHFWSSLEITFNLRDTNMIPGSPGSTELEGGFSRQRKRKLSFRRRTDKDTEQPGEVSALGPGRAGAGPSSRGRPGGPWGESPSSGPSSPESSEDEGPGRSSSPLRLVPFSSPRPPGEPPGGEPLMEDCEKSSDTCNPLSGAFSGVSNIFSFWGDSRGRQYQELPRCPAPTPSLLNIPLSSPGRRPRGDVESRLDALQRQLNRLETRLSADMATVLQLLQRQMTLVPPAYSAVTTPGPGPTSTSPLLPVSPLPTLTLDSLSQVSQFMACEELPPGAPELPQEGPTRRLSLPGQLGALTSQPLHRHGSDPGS

[11] = Dog 28-day repeat-dose GLP toxicity study; format: in vivo; settings: male, Beagle, in vivo; for NOAEL at 28 days: dog
[12] = tested on: male Beagle dogs; assay: Dog 28-day repeat-dose GLP toxicity study; format: in vivo
[13] = tested on: rat micronucleus; assay: In vivo rat micronucleus study; settings: highest doses tested
[14] = tested on: healthy men; assay: Phase 1b MAD study (Part 1), 28-day dosing, safety and tolerability; format: in vivo, human
Protocol: as §1

[15] = tested on: mice; assay: Repeat dose study in mice (sperm counts); format: in vivo, mouse
[16] = tested on: male mice; assay: Mouse single dose non-GLP study; format: in vivo
[17] = tested on: mice, rats, dogs and NHPs; assay: Research in nonclinical models (mice, rats, dogs and NHPs); format: in vivo, mouse, rat, dog, NHP
[18] = tested on: rats; assay: Rat repeat dose non-GLP efficacy study (sperm counts, MABEL); format: in vivo
Protocol: Rat testicular toxicity reversibility characteristics and findings after repeat dosing are discussed in Section 3.1.4.
Rat 35-day repeat dose non-GLP study with a MABEL of 0.75 mg/kg/day.

[19] = 15, 30 or 90 mg once daily for 28 days

Cc1ccc(C2=CC(C)(C)Oc3ccc(-c4ccc(-c5ccc(C(=O)O)cc5)[nH]4)cc32)cc1 [Compound A]
Fertility ([1]; 3 mg/kg/day dose group): 13% | Fertility ([1]; 10 mg/kg/day dose group): 6% | Fertility ([1]; 30 mg/kg/day dose group): 0% | Effect on sperm counts [2]: not sufficient to decrease sperm counts; also recorded: firm evidence of sperm reduction has not been observed; also recorded: have not been replicated | pIC50 ([3]; CYP1A2): 4.52 | Time-dependent inhibition (TDI) ([3]; CYP1A2, 0.3 to 100 μM): no TDI potential | half-life ([4]; rat, read-out: Half-life (T1/2) in microsomes): > 23.1 h | Compound remaining intact ([4]; 90 minutes): 113% | Metabolites yielded by biotransformation ([5]; 10 μM, pooled hepatocytes): 10 metabolites | Human metabolites produced (of the 8) ([5]; dog hepatocytes): 4 | Quantified human metabolites produced (of the 8) ([5]; rat hepatocytes): 6 | pIC50 ([6]; CYP2C8): 5.08 | Time-dependent inhibition (TDI) ([6]; CYP2C8, 0.3 to 100 μM): no TDI potential | half-life [7]: > 23.1 h | Binding to plasma proteins [8]: at least 99.99% | Adverse event possibly related to study treatment ([9]; after the 30 mg dose): decreased sex drive in 1 participant | Adverse event possibly related to study treatment ([9]; after the 180 mg dose, Holter monitoring, 1 participant): asymptomatic cardiac arrhythmia of low clinical concern | Serious adverse events (SAEs) ([9]; single doses 10, 30, 90, 180 mg, fasting): no serious adverse events | Adverse events classified as possibly related to study treatment (number) ([9]; single doses 10-180 mg): two | Safety and tolerability ([9]; single doses up to 180 mg, fasted state, healthy volunteers): safe and well tolerated | Main outcomes: hERG [10]: Clean | Human equivalent dose of NOAEL at 28 days ([11]; dog 28-day GLP, NOAEL 5 mg/kg/day, read-out: HED of NOAEL): 2.8 mg/kg/day | NOAEL at 28 days ([11]; 28-day repeat dose GLP, 2.5-25 mg/kg/day): 5 mg/kg/day | NOAEL at 28 days ([11]; 28-day repeat-dose): 5 mg/kg | HED (based on BSA) of MABEL ([12]; dog): 1.4 mg/kg | HED for 60 kg BW of MABEL ([12]; dog): 84 mg | HED for 80 kg BW of MABEL ([12]; dog): 112 mg | HED of not tolerated dose, fixed dose based on 80 kg body weight ([12]; dog): ≥ 444.8 mg | Not tolerated repeat daily dose (death and morbidity) ([12]; dog): ≥ 10 mg/kg/day | Doses with intended testicular toxicity confirmed by histopathology ([12]; dog, 28-day dosing): ≥ 2.5 mg/kg/day | MABEL ([12]; dog, 28-day repeat dose GLP): 2.5 mg/kg/day | Reversibility of spermatogenesis ([12]; dog, 62-day recovery period): reversible | Recovery of spermatogenesis ([12]; dog, after 28-day dosing): 1 spermatogenic cycle | Cross-section of canine testicle after dosing (FIG. 1B) ([12]; dog, after dosing): no developing and mature sperm | Cross-section of canine testicle after recovery period of no dosing (FIG. 1C) ([12]; dog, after recovery period): return of developing sperm | Cause of death or moribundity ([12]; dogs, 10 or 25 mg/kg/day): renal toxicity | NOAEL increase over the minimum efficacious dose in rats ([12]; male, Beagle, dog, in vivo, 28 days): 22 fold | HED for 60 kg BW ([12]; of dog repeat-dose NOAEL): 168 mg | HED for 80 kg BW ([12]; of dog repeat-dose NOAEL): 224 mg | Genotoxicity: rat micronucleus [13]: not genotoxic; also recorded: no genotoxic potential; also recorded: Clean | AEs classified as possibly related to study treatment [14, 19]: moderate ventricular triplet, mild skin rash, mild sunburn, mild increased urinary frequency and mild photosensitivity | AEs classified as possibly related to study treatment (number) [14, 19]: Five | Serious adverse events (SAEs) ([14]; 15, 30 or 90 mg once daily for 28 days, fasting, to date): no serious adverse events | Safety and tolerability ([14]; 28-day oral administration, up to 90 mg, fasted state): safe and well tolerated | Reversibility of antispermatogenic effect ([15]; mice): ≤ 1 spermatogenic cycle | Lowest dose with decreases in sperm counts ([15]; mouse, repeat dose for 4 weeks): 2.5 mg/kg/day | Tolerated single dose (highest dose tested) ([16]; male mice, non-GLP study): 1,000 mg/kg | HED of tolerated single dose ([16]; mice, 1,000 mg/kg): 81.3 mg/kg | Testosterone levels ([17]; mice, rats, dogs and NHPs): does not alter testosterone levels | Virility ([17]; mice, rats, dogs and NHPs): does not affect virility | Repeat dosing after which impairment of fertility / reduction of sperm counts was shown ([17]; nonclinical models): 3-4 weeks | HED (based on BSA) of MABEL ([18]; rat): 0.1 mg/kg | HED for 60 kg BW of MABEL ([18]; rat): 7.2 mg | HED for 80 kg BW of MABEL ([18]; rat): 9.6 mg | MABEL ([18]; rat, 35-day repeat dose non-GLP): 0.75 mg/kg/day | Lowest dose with decreases in sperm counts / minimum efficacious dose in rats ([18]; rat, repeat dose for 36 days): 0.75 mg/kg/day | Recovery from disruption of spermatogenesis ([18]; rats, 28-day dosing at 0.75 mg/kg/day and 1 mg/kg/day): recover from disruption of spermatogenesis
